Experimental data from patent US11014943B2, “Azetidine derivative” (CHIA TAI TIANQING PHARMACEUTICAL GROUP CO., LTD., priority 2017, dated 2021).

How the values were obtained:
[1] = Liver microsome stability test, mouse; type: in vitro ADME; details: mouse liver microsomes; CD-1 mouse (M) liver microsome; read-out: Liver microsome stability (T1/2, min)
Procedure: (§1) A test compound was incubated with CD-1 mouse liver microsome, SD rat liver microsome, and human liver microsome, respectively, to evaluate the stability of the test compound.
(§2) Preparation of a solution sample of the test compound: 10 mM solution (5 μL) of a compound prepared in the Example in DMSO was added to a mixed solvent (450 μL) of DMSO (45 μL), methanol and water (a volume ratio of methanol to water was 1:1) to prepare a 100 μM solution of the test compound; and 50 μL of the 100 μM solution of the test compound was added to 450 μL of 100 mM potassium phosphate buffer to obtain a 10 μM solution of the test compound.
(§3) The 10 μM solution of the test compound was pre-incubated with the microsome from the above three species for 10 minutes, respectively, and then a working solution of a reduced nicotinamide adenine dinucleotide phosphate (NADPH) regeneration system was added to the incubation plate at each time point to initiate the reaction, and finally a stop solution (100% ACN) was added to the reaction plate to terminate the reaction at 0, 5, 10, 20, 30 and 60-minute. The test compound was determined by LC-MS/MS method.

[2] = Liver microsome stability test, rat; type: in vitro ADME; details: rat liver microsomes; SD rat (R) liver microsome; read-out: Liver microsome stability (T1/2, min)
Procedure: as §1, §2, §3

MDR1 = experiment: Cell membrane permeability test on MDR1-MDCK II cells; type: in vitro ADME; details: dog; for Papp A→B at 150 min, 2 μM / Papp B→A at 150 min, 2 μM: pH=7.4; for efflux ratio at 150 min, 2 μM: pH 7.4, Papp B to A/Papp A to B
Procedure: Cell membrane permeability of a test compound was evaluated on MDR1-MDCK II cells.
A test compound (10 mM solution of the compound in DMSO) was diluted with a transfer buffer (HBSS with 10 mM Hepes, pH=7.4) to prepare a sample having a final concentration of 2 μM, followed by bidirectional (A-B and B-A) administration. After administration, the cell plate was incubated in an incubator with 5% CO2 and a saturated humidity at 37° C. for 150 minutes. After the 150-minute incubation, the sample was collected, and the concentration of the test compound in the transfer sample was semi-quantitatively determined by LC/MS/MS method.

MM1.S cells = experiment: In vitro anti-proliferation test on MM1.S cells (CellTiter-Glo); type: cell-based; details: Homo sapiens, 48 h, 2 days incubation, cell viability
Procedure: This test was aimed to investigate the inhibitory effect of a compound on cell proliferation by determining the effect of the compound on cell viability in tumor cell line MM1.S in vitro.
MM1.S cells were seeded into a black 96-well cell culture plate at a density of 7,000 cells per well, and then the plate was incubated overnight in an incubator with 5% CO2 and 100% relative humidity at 37° C. A solution of a test compound in DMSO was added to the cell culture wells at a certain concentration (0.3 to 2000 nM), and then the culture plate was placed back to the incubator, and a vehicle control (containing DMSO with no compound) and a blank control were provided.
The culture plate was incubated in the incubator with 5% CO2 and 100% relative humidity at 37° C. for 2 days. The sample was treated using the Promega CellTiter-Glo Luminescent Cell Viability Assay Kit (Promega-G7571) standard method, and a luminescent signal was detected on the SpectraMax i3x of Molecular Devices plate reader. The inhibition rate of the test compound was calculated through the following equation using original data: […]
RLU represents a relative luminescence intensity.

[3] = Liver microsome stability test, human; type: in vitro ADME; details: human liver microsomes; human (H) liver microsome; read-out: Liver microsome stability (T1/2, min)
Procedure: as §1, §2, §3

| Structure (SMILES) | half-life [1] [min] | half-life [2] [min] | Papp A→B at 150 min, 2 μM (MDR1) [×10⁻⁶ cm/s] | Papp B→A at 150 min, 2 μM (MDR1) [×10⁻⁶ cm/s] | efflux ratio at 150 min, 2 μM (MDR1) | IC50 (MM1.S cells) [nM] | half-life [3] [min] |
| --- | --- | --- | --- | --- | --- | --- | --- |
| CC(C)CC(NC(=O)[C@H](CC1CC1)NC(=O)[C@@H]1CCN1c1ccc(C(F)(F)F)cn1)B(O)O (some centres unmarked) [WX-306] | 14 | 37.4 | 0.3 | 17.8 | 59.3 | 8.2 | 17.8 |
| CC(C)CC(NC(=O)[C@H](CC1CC1)NC(=O)[C@@H]1CCN1c1ncc(F)cn1)B(O)O (some centres unmarked) [WX-260] | 84.8 | > 145 | 0.3 | 5.1 | 17 | 11 | 108 |
| CC(C)CC(NC(=O)CNC(=O)[C@@H]1CCN1c1ccc(Cl)cc1C(F)(F)F)B(O)O (some centres unmarked) [WX-385] | – | – | – | – | – | 104 | – |
| CC(C)CC(NC(=O)[C@H](CC1CC1)NC(=O)[C@@H]1CCN1c1nc(C(F)(F)F)cs1)B(O)O (some centres unmarked) [WX-308] | 20.1 | 26.8 | 0.2 | 15.3 | 76.5 | 8.9 | 27.4 |
| CC(C)CC(NC(=O)[C@H](C)NC(=O)[C@@H]1CCN1c1ncc(F)cn1)B(O)O (single isomer, unassigned) [WX-313] | 52.5 | 57.2 | 0.2 | 1.29 | 7.16 | 24.5 | > 145 |
| CC(C)CC(NC(=O)CNC(=O)[C@@H]1CCN1c1ccc(C(F)(F)F)cc1F)B(O)O (some centres unmarked) [WX-355] | – | – | – | – | – | 28.8 | – |
| CC(C)CC(NC(=O)CNC(=O)[C@@H]1CCN1c1ccc(C(F)(F)F)cc1Cl)B(O)O (some centres unmarked) [WX-351] | – | – | – | – | – | 45.9 | – |
| CC(C)CC(NC(=O)CNC(=O)[C@@H]1CCN1c1ccc(C#N)cc1F)B(O)O (some centres unmarked) [WX-365] | – | – | – | – | – | 90.6 | – |
| CC(C)CC(NC(=O)[C@H](Cc1ccccc1)NC(=O)[C@@H]1CCN1c1nccc(-c2ccccc2)n1)B(O)O (some centres unmarked) [WX-174] | 0.8 | 1.6 | 0.44 | 18.4 | 41.8 | 5.8 | 3.5 |
| CC(C)CC(NC(=O)CNC(=O)[C@@H]1CCN1c1ccc(F)cc1F)B(O)O (single isomer, unassigned) [WX-333] | 67.4 | 43.1 | 0.38 | 7.32 | 19.3 | 1 | 67.4 |
| CC(C)CC(NC(=O)CNC(=O)[C@@H]1CCN1c1cc(F)c(F)cc1F)B(O)O (some centres unmarked) [WX-391] | – | – | – | – | – | 5.4 | – |
| CC(C)CC(NC(=O)CNC(=O)[C@@H]1CCN1c1c(F)cc(Cl)cc1F)B(O)O (some centres unmarked) [WX-373] | – | – | – | – | – | 26.7 | – |
| CC(C)CC(NC(=O)CNC(=O)[C@@H]1CCN1c1ccc(C(F)(F)F)cn1)B(O)O (some centres unmarked) [WX-329] | 40.3 | 43.3 | 0.27 | 3.74 | 13.8 | 11.5 | 51.5 |
| CC(C)CC(NC(=O)[C@H](Cc1ccccc1)NC(=O)[C@@H]1CCN1c1ccc(F)cc1)B(O)O (single isomer, unassigned) [WX-193] | 2.7 | 4.6 | 0.1 | 13.1 | 131 | 8.2 | 4.8 |
| CC(C)CC(NC(=O)CNC(=O)[C@@H]1CCN1c1ccc(F)cn1)B(O)O (single isomer, unassigned) [WX-317] | 27.1 | 35.5 | 0.01 | 0.05 | 5 | 32 | 77 |
| CC(C)CC(NC(=O)CNC(=O)[C@@H]1CCN1c1ccc(C(F)(F)F)nn1)B(O)O (some centres unmarked) [WX-367] | – | – | – | – | – | 183 | – |
| CC(C)CC(NC(=O)CNC(=O)[C@@H]1CCN1c1ccc(F)cc1Cl)B(O)O (some centres unmarked) [WX-381] | – | – | – | – | – | 119 | – |
| CC(C)CC(NC(=O)CNC(=O)[C@@H]1CCN1c1ccc(F)cc1)B(O)O (single isomer, unassigned) [WX-301] | 43.5 | 42.1 | – | – | – | 5.8 | 74.3 |
| CC(C)CC(NC(=O)CNC(=O)[C@@H]1CCN1c1nc(C(F)(F)F)cs1)B(O)O (some centres unmarked) [WX-327] | 37.7 | 26.5 | 0.24 | 2.24 | 9.33 | 24.2 | 75 |
| CC(C)CC(NC(=O)CNC(=O)[C@@H]1CCN1c1ncc(F)cc1F)B(O)O (some centres unmarked) [WX-379] | – | – | – | – | – | 24 | – |
